Counter-ions that a name gives are not always drawn.

Among the data in patent US8697687B2, “Treating diseases mediated by blockade of the epithelial sodium channel with pyrazine-2-carboxamide derivatives” (Novartis AG, priority 2007, dated 2014) are IC50 values, retold here.

This experiment concerns the target T1, epithelial sodium channel (ENaC) (Homo sapiens, UniProt P37088+P51168+P51170).
T1 construct: host or cells: primary Human Bronchial Epithelial cells (HBECs), air-liquid interface culture
T1 sequence (P37088 1-669): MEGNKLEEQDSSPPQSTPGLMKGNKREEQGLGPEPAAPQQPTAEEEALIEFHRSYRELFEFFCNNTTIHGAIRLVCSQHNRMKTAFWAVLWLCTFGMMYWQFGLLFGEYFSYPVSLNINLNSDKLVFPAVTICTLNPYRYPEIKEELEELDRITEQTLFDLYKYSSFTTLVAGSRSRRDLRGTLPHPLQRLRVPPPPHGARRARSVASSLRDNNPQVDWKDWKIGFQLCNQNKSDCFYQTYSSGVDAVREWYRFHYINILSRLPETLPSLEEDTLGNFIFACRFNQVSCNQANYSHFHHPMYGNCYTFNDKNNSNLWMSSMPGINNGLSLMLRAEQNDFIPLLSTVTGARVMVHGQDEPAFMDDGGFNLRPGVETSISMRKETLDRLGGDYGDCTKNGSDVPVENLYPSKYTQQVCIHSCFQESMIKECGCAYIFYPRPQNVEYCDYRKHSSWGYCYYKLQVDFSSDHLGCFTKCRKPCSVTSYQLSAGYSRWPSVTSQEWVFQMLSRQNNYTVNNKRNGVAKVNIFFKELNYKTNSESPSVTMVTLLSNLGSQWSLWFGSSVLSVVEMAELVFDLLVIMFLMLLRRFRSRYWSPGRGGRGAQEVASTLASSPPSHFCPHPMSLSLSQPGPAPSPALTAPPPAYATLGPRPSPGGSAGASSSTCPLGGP
T1 sequence (P51168 1-640): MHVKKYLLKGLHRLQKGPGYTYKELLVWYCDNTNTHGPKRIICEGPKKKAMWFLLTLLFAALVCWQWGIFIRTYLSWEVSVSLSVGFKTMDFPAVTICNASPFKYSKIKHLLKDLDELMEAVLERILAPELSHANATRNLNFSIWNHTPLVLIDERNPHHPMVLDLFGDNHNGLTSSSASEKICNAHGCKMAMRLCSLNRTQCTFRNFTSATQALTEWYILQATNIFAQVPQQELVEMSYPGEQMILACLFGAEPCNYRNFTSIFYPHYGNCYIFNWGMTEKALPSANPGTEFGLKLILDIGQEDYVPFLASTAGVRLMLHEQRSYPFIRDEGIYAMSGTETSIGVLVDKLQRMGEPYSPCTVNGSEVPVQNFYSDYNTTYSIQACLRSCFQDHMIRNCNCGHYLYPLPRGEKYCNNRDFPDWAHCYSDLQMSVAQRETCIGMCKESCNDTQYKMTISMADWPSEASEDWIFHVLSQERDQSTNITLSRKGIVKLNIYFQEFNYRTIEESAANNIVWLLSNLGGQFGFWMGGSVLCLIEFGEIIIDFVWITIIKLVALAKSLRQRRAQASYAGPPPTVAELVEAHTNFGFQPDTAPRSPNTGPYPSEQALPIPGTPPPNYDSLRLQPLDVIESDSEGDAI
T1 sequence (P51170 1-649): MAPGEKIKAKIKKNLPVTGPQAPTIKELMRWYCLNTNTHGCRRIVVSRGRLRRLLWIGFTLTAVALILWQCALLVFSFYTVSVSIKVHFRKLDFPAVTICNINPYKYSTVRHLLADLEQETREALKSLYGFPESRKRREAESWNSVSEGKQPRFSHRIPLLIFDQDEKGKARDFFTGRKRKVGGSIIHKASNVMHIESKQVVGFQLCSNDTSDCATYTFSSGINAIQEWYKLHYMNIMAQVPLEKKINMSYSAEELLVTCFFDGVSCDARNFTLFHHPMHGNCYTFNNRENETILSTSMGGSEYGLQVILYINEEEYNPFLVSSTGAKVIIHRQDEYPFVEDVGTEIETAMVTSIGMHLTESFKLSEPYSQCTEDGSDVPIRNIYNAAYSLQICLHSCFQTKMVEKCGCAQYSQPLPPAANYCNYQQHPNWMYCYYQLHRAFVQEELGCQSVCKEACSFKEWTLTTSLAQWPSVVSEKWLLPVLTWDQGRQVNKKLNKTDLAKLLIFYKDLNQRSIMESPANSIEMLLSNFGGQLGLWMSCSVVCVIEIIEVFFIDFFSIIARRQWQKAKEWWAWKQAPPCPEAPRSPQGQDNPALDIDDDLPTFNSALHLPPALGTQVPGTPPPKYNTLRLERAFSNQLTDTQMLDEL
Briefly: Short circuit current (ISC) measurements in Human Bronchial Epithelial cells, inhibition of amiloride-sensitive ISC. The format is cell-based. The note with it: inhibition of the amiloride-sensitive ISC; Human Bronchial Epithelial cells (HBECs) at air-liquid interface; compound added to apical chamber; read-out: IC50. As for the experimental part: Compounds of formula (I) and their pharmaceutically acceptable salts, hereinafter referred to alternatively as “agents of the invention”, are useful as pharmaceuticals. In particular, the compounds have good ENaC blocker activity and may be tested in the following assays.
Human Bronchial Epithelial cells (HBECs) (Cambrex) were cultured under air-liquid interface conditions to provide a well differentiated mucociliary phenotype.
HBECs were cultured using a modification of the method described by Gray and colleagues (Gray et al., 1996). Cells were seeded in plastic T-162 flasks and were grown in bronchial epithelial cell growth medium (BEGM; Cambrex) supplemented with bovine pituitary extract (52 μg/mL), hydrocortisone (0.5 μg/mL), human recombinant epidermal growth factor (0.5 ng/mL), epinephrine (0.5 μg/mL), transferrin (10 μg/mL), insulin (5 μg/mL), retinoic acid (0.1 μg/mL), triiodothyronine ([…]), gentamycin (50 μg/mL) and amphotericin B (50 ng/mL). Medium was changed every 48 hours until cells were 90% confluent. Cells were then passaged and seeded (8.25×10^5 cells/insert) on polycarbonate Snapwell inserts (Costar) in differentiation media containing 50% DMEM in BEGM with the same supplements as above but without triiodothyronine and a final retinoic acid concentration of 50 nM (all-trans retinoic acid). Cells were maintained submerged for the first 7 days in culture, after which time they were exposed to an apical air interface for the remainder of the culture period. At this time, media was changed to DMEM:F12 media containing 2% v/v Ultroser G for the remainder of culture. Amphotericin B was removed from all media 3 feeds prior to use in the Using Chambers. Cells were used between days 7 and 21 after establishment of the apical-air interface. At all stages of culture, cells were maintained at 37° C. in 5% CO2 in an air incubator.
Short Circuit Current (ISC) Measurements
Snapwell inserts were mounted in Vertical Diffusion Chambers (Costar) and were bathed with continuously gassed Ringer solution (5% CO2 in O2; pH 7.4) maintained at 37° C. containing (in mM): 120 NaCl, 25 NaHCO3, 3.3 KH2PO4, 0.8 K2HPO4, 1.2 CaCl2, 1.2 MgCl2, and 10 glucose. The solution osmolarity was between 280 and 300 mOsmol/kg H2O for all physiological salt solutions used. Cells were voltage clamped to 0 mV (model EVC4000; WPI). RT was measured by applying a 1- or 2-mV pulse at 30-s intervals and calculating RT by Ohm's law. Data were recorded using a PowerLab workstation (ADInstruments).
Test compounds were prepared as a 10 mM stock solution in DMSO (95%). Serial 3-fold dilutions were freshly prepared in an appropriate vehicle (distilled H2O or Ringers solution). The initial concentration was added to the apical chamber as a 1000× concentrate in 5 μL, resulting in a final 1× concentration the 5 mL volume of the Ussing chamber. Subsequent additions of compound were added in a 3.3 μL volume of the 1000× serially diluted stock solution. At the completion of the concentration-response experiment, amiloride (10 μM) was added into the apical chamber to enable the total amiloride-sensitive current to be measured. An amiloride control IC50 was established at the start of each experiment.
Results are expressed as the mean % inhibition of the amiloride-sensitive ISC. Concentration-response curves were plotted and IC50 values generated using GraphPad Prism 3.02. Cell inserts were typically run in duplicate and the IC50 calculated on the mean % inhibition data.

In general, IC50 refers to the concentration that gives 50% inhibition. On to `Nc1nc(N)c(C(=O)/N=C2\NCC3(CCN(C(=O)c4cccc5[nH]ccc45)CC3)N2)nc1Cl` [Example 99, 3,5-Diamino-6-chloro-pyrazine-2-carboxylic acid [8-(1H-indole-4-carbonyl)-1,3,8-triaza-spiro[4.5]dec-(2E)-ylidene]-amide], for which the IC50 was found to be 19 nM. Next, `Nc1nc(N)c(C(=O)/N=C2\NCC3(CCN(C(=O)CCc4nc(-c5ccc(Cl)cc5)no4)CC3)N2)nc1Cl` [Example 146, 3,5-Diamino-6-chloro-pyrazine-2-carboxylic acid [8-{3-[3-(4-chlorophenyl)-[1,2,4]oxadiazol-5-yl]-propionyl}-1,3,8-triaza-spiro[4.5]dec-(2E)-ylidene-amide trifluoroacetate]: 6 nM; `Nc1nc(N)c(C(=O)N=C2NC3CCCCC3N2)nc1Cl` (stereo not shown) [Example 11, 3,5-Diamino-6-chloro-pyrazine-2-carboxylic acid (octahydro-benzoimidazol-2-ylidene)-amide]: 1690 nM; `Cc1ccc(S(=O)(=O)N[C@@H](Cc2ccccc2)C(=O)N2CCC3(CC2)CN/C(=N\C(=O)c2nc(Cl)c(N)nc2N)N3)cc1` [Example 39, 3,5-Diamino-6-chloro-pyrazine-2-carboxylic acid [8-[(S)-3-phenyl-2-(toluene-4-sulfonylamino)-propionyl]-1,3,8-triaza-spiro[4.5]dec-(2E)-ylidene]-amide]: 5.5 nM. With `Nc1nc(N)c(C(=O)/N=C2\NC[C@H](CCCNC(=O)NCc3ccccc3)N2)nc1Cl` [Example 32, 3,5-Diamino-6-chloro-pyrazine-2-carboxylic acid [(S)-4-[3-(3-benzyl-ureido)-propyl]-imidazolidin-(2E)-ylidene]-amide] the figure was 18 nM; with `Nc1nc(N)c(C(=O)/N=C2\NCC3(CCN(C(=O)CCc4ccc(OCc5ccncc5)cc4)CC3)N2)nc1Cl` [Example 70, 3,5-Diamino-6-chloro-pyrazine-2-carboxylic acid [8-{3-[4-(pyridin-4-ylmethoxy)-phenyl]-propionyl}-1,3,8-triaza-spiro[4.5]dec-(2E)-ylidene]-amide], 74 nM; with `COc1cc(OC)nc(COc2ccc(C(=O)N3CCC4(CC3)CN/C(=N\C(=O)c3nc(Cl)c(N)nc3N)N4)cc2)n1` [Example 61, 3,5-Diamino-6-chloro-pyrazine-2-carboxylic acid [8-[4-(4,6-dimethoxy-pyrimidin-2-ylmethoxy)-benzoyl]-1,3,8-triaza-spiro[4.5]dec-(2E)-ylidene]-amide], 346 nM. As to `Nc1nc(N)c(C(=O)/N=C2/NC[C@H](CCCCNC(=O)OCc3ccccc3)N2)nc1Cl` [Example 5, (4-{(S)-2-[(E)-3,5-Diamino-6-chloro-pyrazine-2-carbonylimino]-imidazolidin-4-yl}-butyl)-carbamic acid benzyl ester], the half-inhibitory concentration (IC50) amounted to 65 nM. `Nc1nc(N)c(C(=O)/N=C2\NC[C@H](CCCNC(=O)Cc3ccccc3)N2)nc1Cl` [Example 34, 3,5-Diamino-6-chloro-pyrazine-2-carboxylic acid [(S)-4-(3-phenylacetylamino-propyl)-imidazolidin-(2E)-ylidene]-amide]: the IC50 turned out to be 95 nM. Next, `CC(C)NC(=O)Nc1cc(C(=O)N2CCC3(CC2)CN/C(=N\C(=O)c2nc(Cl)c(N)nc2N)N3)ccn1` [Example 62, 3,5-Diamino-6-chloro-pyrazine-2-carboxylic acid [8-[2-(3-isopropyl-ureido)-pyridine-4-carbonyl]-1,3,8-triaza-spiro[4.5]dec-(2E)-ylidene]-amide]: 13 nM; `CC(C)OCCCNS(=O)(=O)c1cccc(C(=O)N2CCC3(CC2)CN/C(=N\C(=O)c2nc(Cl)c(N)nc2N)N3)c1` [Example 41, 3,5-Diamino-6-chloro-pyrazine-2-carboxylic acid [8-[3-(3-isopropoxy-propylsulfamoyl)-benzoyl]-1,3,8-triaza-spiro[4.5]dec-(2E)-ylidene]-amide]: 9.5 nM. Next, `CC(C)(C)OC(=O)COc1ccc(CCC(=O)N2CCC3(CC2)CN/C(=N\C(=O)c2nc(Cl)c(N)nc2N)N3)cc1` [Example 71, [4-(3-{2-[(E)-3,5-Diamino-6-chloro-pyrazine-2-carbonylimino]-1,3,8-triaza-spiro[4.5]dec-8-yl}-3-oxo-propyl)-phenoxy]-acetic acid tert-butyl]: 42 nM; `Nc1nc(N)c(C(=O)/N=C2\NCC3(CC4CCC(C3)N4C(=O)c3cccc4[nH]ccc34)N2)nc1Cl` (stereo not shown) [Example 252, (E)-N-(8-(1H-indole-4-carbonyl)-8-azaspiro[bicyclo[3.2.1]octane-3,4′-imidazolidine]-2′-ylidene)-3,5-diamino-6-chloropyrazine-2-carboxamide]: 28 nM.
